Test results: paper PMC9084888, “FGFR2–BRD4 Axis Regulates Transcriptional Networks of Histone 3 Modification and Synergy Between Its Inhibitors and PD-1/PD-L1 in a TNBC Mouse Model” (Frontiers in Immunology, 2022)

How the values were obtained:
Type in all cases: cell-based, mouse
[1] = tested on: c-Myc; experiment: Western blot of c-Myc in treated Fgfr2-S252W tumor cells; conditions: Figure 5F
Method: (§1) Total proteins of tumors or cells were extracted using RIPA buffer with phosphatase and a protease inhibitor. Following a previously described protocol, immunoblotting was carried out using ChemiDocTM with corresponding antibodies. The antibodies used for IHC and Western blot are listed in Supplementary Table S2 .
(§2) (C) Immunoblots with antibodies specific for the H3K9 acetylated lysine residues of histone H3 and pathway analysis of the activation of FGFR2 tumors or wild type (WT). […] (E) Assessment of the drug response of BGJ398, JQ1, or the combined treatment of Fgfr2-S252W tumor cells with the Alamar blue assay. […] (G) Inflammation analysis using real-time RT-PCR from Fgfr2-S252W or WT mouse. P-values by using GraphPad Prism 7 Software. **p < 0.01, ***p < 0.001, ****p < 0.0001.

[2] = tested on: BRD4; experiment: Western blot of BRD4 in treated Fgfr2-S252W tumor cells; conditions: Figure 5F
Method: as §1, §2

[3] = tested on: Fgfr2-S252W tumor cells; experiment: Alamar blue drug response assay of Fgfr2-S252W tumor cells
Description: All animal experiments were approved by the University of Macau Animal Ethics Committee (under the protocol UMARE-015-2019). The generation of Fgfr2-S252W mice was described in a previous work ([19]). Transgenic mice were continually checked to accelerate the growth of mammary tumors. Tumor samples were cut using sharp blades into small pieces of about 0.1–0.3 cm in diameter and processed three ways, as follows: 1) two larger pieces were fixed in 10% formalin and processed for histology and immunohistochemistry (IHC) staining with antibodies; 2) three pieces were immediately frozen in liquid nitrogen and used for subsequent DNA, RNA, and protein isolation; and 3) all the remaining pieces were placed in a freezing medium [10% DMSO/25% serum/65% Dulbecco’s modified Eagle’s medium (DMEM)], slowly frozen to −80°C, and transferred into liquid nitrogen a few days later. […] Primary FGFR2 tumor cells were derived from the Fgfr2-S252W mouse model using a standard procedure and maintained in F-medium.
Figure 5 (A, B) RT-PCR analysis of the mRNA levels of Brd4 (A) and c-Myc (B) in tumors from the activation of Fgfr2-S252W transgenic mice. (C) Immunoblots with antibodies specific for the H3K9 acetylated lysine residues of histone H3 and pathway analysis of the activation of FGFR2 tumors or wild type (WT). […]

Compound | inhibition of c-Myc (Western blot) [1] | inhibition of BRD4 (Western blot) [2] | resistance of Fgfr2-S252W tumor cells [3] | drug response of Fgfr2-S252W cells ([3]; cell culture conditions, single agent, compared to response to FGFR inhibitor BGJ398)
CCN1CCN(c2ccc(Nc3cc(N(C)C(=O)Nc4c(Cl)c(OC)cc(OC)c4Cl)ncn3)cc2)CC1 [BGJ398] | inhibit | inhibit |  | 
Cc1sc2c(c1C)C(c1ccc(Cl)cc1)=N[C@@H](CC(=O)OC(C)(C)C)c1nnc(C)n1-2 [JQ1] | inhibit | inhibit | still showed resistance | not very sensitive
